Measurements reported in publication PMC9675978 (The Journal of steroid biochemistry and molecular biology, 2022).
Numbering of substitutions follows the chain as printed. Where a name gives a salt, the structure may show the parent alone.

Experiments:
[1] = molecular target: T1, AKR1C3 H5Q (Homo sapiens, UniProt P42330, H5Q); assay: Kd for NAD; format: binding; details: read-out: Kd NADP+, 0.5 μM protein, pH 7.0, 25 °C, Morrison equation
T1 sequence (P42330 1-323 H5Q): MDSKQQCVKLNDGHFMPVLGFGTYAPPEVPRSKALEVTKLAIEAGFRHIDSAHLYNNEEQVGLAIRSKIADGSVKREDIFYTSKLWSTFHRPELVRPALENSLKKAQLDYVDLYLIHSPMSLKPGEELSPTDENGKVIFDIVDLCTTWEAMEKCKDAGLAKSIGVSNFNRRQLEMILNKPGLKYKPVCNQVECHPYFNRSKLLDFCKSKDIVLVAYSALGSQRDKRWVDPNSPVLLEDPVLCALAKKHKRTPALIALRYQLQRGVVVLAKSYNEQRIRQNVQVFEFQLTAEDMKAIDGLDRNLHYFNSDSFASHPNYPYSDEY

[2] = molecular target: T2, AKR1C3 E77G (Homo sapiens, UniProt P42330, E77G); assay: Kd for NAD; format: binding; details: read-out: Kd NADP+, 0.5 μM protein, pH 7.0, 25 °C, Morrison equation
T2 sequence (P42330 1-323 E77G): T1 sequence (P42330 1-323 H5Q) with Q5H, E77G

[3] = molecular target: T3, AKR1C3 WT (Homo sapiens, UniProt P42330); assay: Kd for NAD; format: binding; details: read-out: Kd NADP+, 0.5 μM protein, pH 7.0, 25 °C, Morrison equation
T3 sequence (P42330 1-323): T1 sequence (P42330 1-323 H5Q) with Q5H

[4] = molecular target: T4, AKR1C3 K104D (Homo sapiens, UniProt P42330, K104D); assay: Kd for NAD; format: binding; details: read-out: Kd NADP+, 0.5 μM protein, pH 7.0, 25 °C, Morrison equation
T4 sequence (P42330 1-323 K104D): T1 sequence (P42330 1-323 H5Q) with Q5H, K104D

[5] = tested on: AKR1C3; details: cited from earlier work
[6] = molecular target: T4, AKR1C3 K104D; assay: Specific activity after preincubation at 37 °C with cofactor; format: biochemical; details: alone roughly 50%

| Kd [1] [nM] | Kd [2] [nM] | Kd [3] [nM] | Kd [4] [nM] | K104D activity remaining (% of activity at 0 min) ([6]; K104D preincubated at 37 °C with 2 mM NADP+, over four hours) [%] | K104D activity remaining (% of activity at 0 min) ([6]; K104D preincubated at 37 °C with 2 mM NAD+, four hours) | SMILES | binding affinity of NADP+ relative to NAD+ [5] [times] |
| --- | --- | --- | --- | --- | --- | --- | --- |
| 120 ± 33 | 120 ± 35 | 110 ± 17 | 100 ± 47 | 100 |  | NC(=O)c1ccc[n+]([C@@H]2O[C@H](COP(=O)([O-])OP(=O)(O)OC[C@H]3O[C@@H](n4cnc5c(N)ncnc54)[C@H](OP(=O)(O)O)[C@@H]3O)[C@@H](O)[C@H]2O)c1 [NADP+, nicotinamide adenine dinucleotide phosphate oxidized disodium salt] | ~1000 |
|  |  |  |  |  | roughly 75% | NC(=O)c1ccc[n+]([C@@H]2O[C@H](COP(=O)([O-])OP(=O)(O)OC[C@H]3O[C@@H](n4cnc5c(N)ncnc54)[C@H](O)[C@@H]3O)[C@@H](O)[C@H]2O)c1 [NAD+, nicotinamide adenine dinucleotide Grade II free acid] |  |
